In assay [1] the test system is human smooth muscle cells. Particulars: 2.5 μM atorvastatin in medium (Dubuis et al., 2013); cited from earlier work.
The next assay concerns smooth muscle cells. Particulars: atorvastatin concentration as low as 0.1 μM (Petersen et al., 2013; Baetta et al., 1997); cited from earlier work.
The test system of assay [2] is Human coronary artery smooth muscle cells (HCASMC). Put plainly: MTT cell metabolism assay on nanocoated devices. Particulars: PDE31 coated, dose densities up to 100 μg/cm^2.

SMILES strings stand for the structures.

For `CC(C)c1c(C(=O)Nc2ccccc2)c(-c2ccccc2)c(-c2ccc(F)cc2)n1CC[C@@H](O)C[C@@H](O)CC(=O)[O-].CC(C)c1c(C(=O)Nc2ccccc2)c(-c2ccccc2)c(-c2ccc(F)cc2)n1CC[C@@H](O)C[C@@H](O)CC(=O)[O-].[Ca+2]` [atorvastatin, Atorvastatin calcium], the “viability of human smooth muscle cells” value in assay [1] was “does not suppress the viability”. In the assay with smooth muscle cells, the “growth of smooth muscle cells” value is recorded as “effective in suppressing the growth”. In addition, the “MTT activity of HCASMC with atorvastatin release” value in assay [2] is “no significant difference”.

The values are drawn from patent publication US20210213176A1, “CHEMICAL VAPOR DEPOSITION OF POLYMER COATINGS FOR CONTROLLED DRUG RELEASE, ASSEMBLIES CONTAINING SAME, AND METHODS OF PRODUCTION AND USE THEREOF” (The Board of Regents for the Oklahoma Agricultural and …, priority 2020, published 2021).
